Measurements taken from publication PMC5668240, “Fragment-based screening identifies novel targets for inhibitors of conjugative transfer of antimicrobial resistance by plasmid pKM101” (Scientific Reports, 2017).

How the values were obtained:
[1] = target: T1, purified periplasmic domain of TraE (plasmid pKM101) (Escherichia coli, UniProt Q17U16); experiment: Binding to TraE by fluorescence quenching (intrinsic UV fluorescence); conditions: 20 °C, 20 mM HEPES, 50 mM NaCl, pH 7.4; single site saturation fit
Protocol: Protein overexpression and purification was performed as described previously. The TraE buffer was changed to 20 mM HEPES, 50 mM NaCl, pH 7.4. TraE protein concentrations were determined using the molar extinction coefficient at 280 nm of 25 900 M^−1 cm^−1.
Changes of the intrinsic UV fluorescence emission of TraE upon binding of fragments and small molecules were recorded at 20 °C with a Cary Eclipse Fluorometer (Varian) (λex 295 nm, λem 340 nm, 5 nm excitation and emission slit widths) in 20 mM HEPES, 50 mM NaCl, pH 7.4. The spectra were corrected for dilution effects and KD values were calculated from the ligand binding fluorescence data fitted to a single site saturation curve with constant background using the Grafit 6.0 software package.

[2] = system: conjugative transfer of plasmid pKM101; experiment: Conjugation assay, pKM101-carrying donor FM433 and plasmid-free recipient WL400; format: cell-based; conditions: 50 μM, 2.5% DMSO
Protocol: Quantitation of conjugative DNA transfer was performed as described previously. For analysis of the inhibition of conjugation by fragments or small molecules, the cells were cultivated on agar and in liquid media in the presence of 50 μM of the small molecules in the presence of 2.5% DMSO.

[3] = system: purified periplasmic domain of TraE; experiment: In vitro DSS cross-linking assay of TraE dimerization; format: biochemical; conditions: 0–1.6 mM molecule, normalized to control without small molecules
Protocol: Chemical crosslinking with disuccinimidyl suberate (DSS, Pierce) was performed as described previously[13] and the formation of crosslinking products was quantified by SDS-PAGE and using the ImageLab Software 4.0 (Bio-Rad).

[4] = target: T1, purified periplasmic domain of TraE (plasmid pKM101); experiment: Differential scanning fluorimetry (DSF) thermal shift of TraE; format: binding; conditions: 5 mM fragment or small molecule, 5 μM protein; hit when ΔTm higher than 1 °C
Protocol: A library of 505 fragments was used in this study of which 186 were previously described[14] and the others are listed in Supplementary Table 3. DSF experiments were performed as described previously. DSF was conducted using 5 μM of protein, 10X concentration of SYPRO Orange (from 5000X stock solution, ThermoFisher) in 20 mM HEPES, 50 mM NaCl, pH 7.4 and 5% final concentration of DMSO. For fragment-based screening and molecule optimization, fragments or small molecules were added to final concentrations of 5 mM. SYPRO Orange fluorescence was monitored over 20–95 °C with a LightCycler® 480 instrument (Roche, USA). The LightCycler® 480 Software (Roche) was used to calculate the first derivate of the resulting melting curve, with the steepest point of the slope being the Tm. Fragments were considered to be hits when ΔTm was higher than 1 °C, which is two times higher than the standard deviation of the DMSO control.

T1 sequence (Q17U16 entry or part of it): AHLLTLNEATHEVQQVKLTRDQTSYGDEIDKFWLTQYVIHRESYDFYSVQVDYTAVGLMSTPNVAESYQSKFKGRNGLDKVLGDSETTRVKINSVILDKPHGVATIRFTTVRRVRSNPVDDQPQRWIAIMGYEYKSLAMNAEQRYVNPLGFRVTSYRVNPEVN

Molecule	Kd [1] [µM]	Effect on conjugative transfer of pKM101 [2]	Effect on formation of DSS-dependent cross-linking products of TraE (dimerization) [3]	Effect on thermal melting point of TraE (DSF) [4]
2-chloroisonicotinic acid [4H10]	32 ± 1.8	no effect on conjugation		
O=C(O)c1ccco1 [1E6, 2-furoic acid]	23 ± 1.9	no effect on conjugation		
O=C(O)c1cc(-n2cccc2)ccn1 [compound 105055, 4-(1H-pyrrol-1-yl)pyridine-2-carboxylic acid]	9.3 ± 0.4	significantly reduce conjugative DNA transfer	significantly inhibit cross-linking	stabilized the protein
O=C(O)c1ccnc(-c2ccco2)c1 [compound 239852, 2-(2-furyl)isonicotinic acid]	19.6 ± 1.2	significantly reduce conjugative DNA transfer	significantly inhibit cross-linking	stabilized the protein
